Publication PMC7297381, “Potent, specific MEPicides for treatment of zoonotic staphylococci” (PLoS Pathogens, 2020)
Converted amounts (≈) assume the structure as drawn. Read-outs that look alike come from different tables or passages of the source.

What was measured:
[1] = target: S. schleiferi DXR enzyme (Staphylococcus schleiferi, UniProt A0ABF7SXB4); assay: S. schleiferi DXR enzyme activity and inhibition (NADPH oxidation at 340 nm); type: biochemical; settings: for inhibition of purified recombinant S. schleiferi DXR in vitro: prodrug, uncleaved
Method: (§1) . The sequence was confirmed by Sanger sequencing and the plasmid was transformed into E. coli BL21(DE3) pLysS (Life Technologies). Gene expression was induced for 2 h with 1 mM isopropyl-β-D-thiogalactoside (IPTG) and cells were harvested by centrifugation at 4274 x g for 10 min at 4°C. The cell pellet was lysed by sonication in lysis buffer containing 25 mM Tris HCl (pH 7.5), 100 mM NaCl, 20 mM imidazole, 10% glycerol, 1 mM MgCl2, 1 mM dithiothreitol (DTT), 1 mg/mL lysozyme, 75 U benzonase and 1 Complete Mini EDTA-free protease inhibitor tablet (Roche Applied Science). The hexahistidine-tagged DXR protein was affinity purified from soluble lysate via nickel agarose beads (Gold Biotechnology). Bound protein was eluted in 300 mM imidazole, 25 mM Tris HCl (pH 7.5), 1 mM MgCl2 and 100 mM NaCl. Purified protein was dialyzed in buffer containing 10% glycerol without imidazole prior to analysis. The enzyme was frozen in liquid nitrogen and stored permanently at -80°C.
Oxidation of NADPH to NADP^+ as a result of substrate turnover was monitored at 340 nm in a POLARstar Omega microplate reader (BMG Labtech)[73]. […] Reactions were initiated by the addition of DOXP after 15 min incubation of the reaction mixture without DOXP at 37°C. Absorption at 340 nm was measured continuously for up to 45 min. For Km [DOXP] determination, DOXP concentrations between 0 and 2 mM were tested at 0.5 mM NADPH. The linear range of enzyme activity was determined by varying the DXR concentration at 1 mM DOXP and 1 mM NADPH. IC50 assays were performed using the standard reaction conditions with the respective amount of DXR inhibitor added to obtain the given final concentrations. Data points from at least three independent replicates were analyzed by nonlinear regression using GraphPad Prism software. Slopes of changing absorbance values were converted to (μM DOXP)(mg enzyme)^-1 s ^-1 using a NADPH standard curve (data not shown). For the determination of the inhibitory constant Ki [FSM] of DXR, enzyme activity over a range of DOXP substrate concentrations between 0 and 2 mM was measured for FSM between 0 mM to 4 mM. Data points from at least three independent replicates were analyzed as described above.

[2] = tested on: S. schleiferi; assay: Growth inhibition assay of Staphylococcus species (OD600, 20 h); settings: read-out: S. schleiferi IC50
Method: (§2) Overnight cultures were diluted 1:200 in LB media and grown at 37°C until the mid-logarithmic phase (OD600 = 0.5–0.8). Cultures were diluted in a 96-well plate to 1 x 10^5 in 150 μL LB media and treated with inhibitors at concentrations ranging from 2 nM to 100 μM. Bacteria were grown at 37°C for 20 h with cyclic shaking at 700 rpm in a FLUOstar Omega microplate reader (BMG Labtech). Growth was assessed over 20 h by measuring the OD600 at 20 min increments. The half-maximal inhibitory concentration (IC50) values were determined during logarithmic growth using GraphPad Prism software. All experiments were performed at least in triplicate and data reported represent the mean ± SEM.

[3] = tested on: S. pseudintermedius; assay: as above; settings: read-out: S. pseudintermedius IC50
Method: as §2

[4] = tested on: S. aureus; assay: as above; settings: for IC50: Staphylococcus aureus, read-out: S. aureus IC50
Method: as §2

[5] = tested on: Escherichia coli; assay: microbe, parasite or virus in culture; type: cell-based; settings: for IC50: Escherichia coli, BW25113, mean ± SD
[6] = tested on: Klebsiella pneumoniae; assay: Growth inhibition assay for Gram-negative bacteria; type: cell-based; settings: for IC50: Klebsiella pneumoniae, ATCC43816, ATCC 43816, mean ± SD
[7] = tested on: Salmonella typhimurium; assay: Growth inhibition assay for Gram-negative bacteria; type: cell-based; settings: Salmonella enterica, strain 04-018-0254, mean ± SD
[8] = tested on: Shigella sonnei; assay: microbe, parasite or virus in culture; type: cell-based; settings: mean ± SD
[9] = tested on: Serratia marcescens; assay: Growth inhibition assay for Gram-negative bacteria; type: cell-based; settings: strain 137.01, mean ± SD
[10] = tested on: Burkholderia thailandensis; assay: microbe, parasite or virus in culture; type: cell-based; settings: read-out: Burkholderia thailandensis IC50
[11] = tested on: HepG2 cells; set-up: method as in PMID 28827774, PMID 30192536; settings: previous work ref [42], [53]; read-out: IC50 against HepG2 cells; cited from earlier work
[12] = tested on: S. schleiferi; assay: MIC by microtiter broth dilution, wild-type and FSM-resistant strains; settings: for sensitivity of FSM^R glpT mutant S. schleiferi strains (MIC fold change vs WT): strains 3408, 4494, 7376, 8400
Method: (§3) Minimum Inhibitory Concentration (MIC) assays were conducted by microtiter broth dilution in clear 96-well plates[78]. MEPicides were serially diluted in duplicate at concentrations ranging from 1.5 mM– 19.5 nM in 75 μL of LB broth. Bacteria cultured without drug were used as a positive control for growth. The plates were inoculated with 75 μL bacteria diluted to 1 x 10^5 CFU/mL in LB. Plates were incubated for 18–20 h while shaking at 200 RPM at 37°C. The plates were then visually inspected, and the MIC value was defined as the lowest concentration of MEPicide that prevented visual growth.

[13] = tested on: S. schleiferi; assay: Minimum bactericidal (MBC) assay, CFU after 24 h; settings: 1 x and 10 x IC50, 24 h, CFU/mL
Method: (§4) Overnight cultures were diluted 1:200 in LB media and grown at 37°C until reaching mid-logarithmic phase of growth. […] Cultures were serially diluted in 1 X Dulbecco’s Phosphate Buffered Saline (PBS; Gibco) and plated on LB agar. Colonies were enumerated after overnight growth at 37°C. Values reflect the mean and standard deviations of at least three independent experiments.
(§5) Growth in CFU/mL of S. schleiferi and S. pseudintermedius after 24 h treatment is plotted against the respective treatment. Cultures were treated at 1 x IC50 concentration and/or 10x IC50 concentration of the inhibitors. Shown are the mean values + SD from at least three independent experiments.

[14] = tested on: S. pseudintermedius; assay: Minimum bactericidal (MBC) assay, CFU after 24 h; settings: 1 x and 10 x IC50, 24 h, CFU/mL
Method: as §4, §5

[15] = tested on: MEP pathway; assay: Targeted LC-MS/MS profiling of MEP pathway intermediates; settings: FSM at 10x IC50, 2 h, vs untreated
Method: (§6) MEP pathway metabolites were compared between untreated (UNT) S. schleiferi (A) and S. pseudintermedius (B) and bacteria treated with FSM at 10x the respective IC50 values. After 2 h treatment, bacterial cells were harvested and the cell pellets analyzed by LC-MS/MS. […] P-values were determined using a Student’s t-test.
(§7) Overnight cultures of Staphylococcus spp. were diluted 1:200 in LB media and grown at 37°C until reaching mid-logarithmic phase. Cultures were then treated for 2 h with FSM at 10x their IC50 while shaking at 37°C. For normalization, the OD600 was determined after 2 h of treatment with the DXR inhibitors. Cells were pelleted by centrifugation for 5 min at 3000 x g at 4°C. The supernatants were removed and cells were washed twice with 1 x PBS (Gibco). The supernatants were removed and the pellets stored at -80°C until analysis. MEP intermediates were extracted from the samples using glass beads (212–300 u) and 600 μL chilled H2O: chloroform: methanol (3:5:12 v/v) spiked with PIPES (piperazine-N,N′-bis(2-ethanesulfonic acid) as internal standard. The cells were disrupted with the TissueLyser II instrument (Qiagen) using a microcentrifuge tube adaptor set pre-chilled for 2 min at 20 Hz. The samples were then centrifuged at 16,000 x g at 4°C for 10 min, the supernatants collected, and pellet extraction repeated once more. The supernatants were pooled and 300 μL chloroform and 450 μL of chilled water were added to the supernatants. The tubes were vortexed and centrifuged. The upper layer was transferred to a 2 mL tube PVDF filter (ThermoFisher, F2520-5) and centrifuged for 5 min at 4,000 x g at 4°C. The samples were transferred to new tubes and dried using a speed-vac. […]
(§8) For LC separation, Luna-NH2 column (3 μm, 150 x 2 mm, Phenomenex) was used flowing at 0.4 mL/min. […] The metabolites were detected using MRM transitions that were previously optimized using standards. […] For quantification, an external standard curve was prepared using a series of standard samples containing different concentrations of metabolites and a fixed concentration of the internal standard. […]

[16] = tested on: MEP pathway; assay: as above; settings: FSM at 10x IC50, 2 h, vs untreated; remark: listed apart in the source
Method: as §6, §7, §8

[17] = tested on: S. pseudintermedius; assay: MIC by microtiter broth dilution, wild-type and FSM-resistant strains
Method: as §3

[18] = substrate: CC(=O)[C@@H](O)[C@H](O)COP(=O)(O)O; assay: S. schleiferi DXR enzyme activity and inhibition (NADPH oxidation at 340 nm); type: biochemical; settings: other: 0.5 mM NADPH; pH 7.5; 37.0 °C
Method: as §1, with “Bound protein was eluted in 300 mM imidazole, 25 mM Tris HCl (pH 7.5), 1 mM MgCl2 and 100 mM NaCl. Purified protein was dialyzed in buffer containing 10% glycerol without imidazole prior to analysis. The enzyme was frozen in liquid nitrogen and stored permanently at -80°C.” left out
Oxidation of NADPH to NADP^+ as a result of substrate turnover was monitored at 340 nm in a POLARstar Omega microplate reader (BMG Labtech)[73]. […] Absorption at 340 nm was measured continuously for up to 45 min. […] The linear range of enzyme activity was determined by varying the DXR concentration at 1 mM DOXP and 1 mM NADPH. […] Data points from at least three independent replicates were analyzed by nonlinear regression using GraphPad Prism software. Slopes of changing absorbance values were converted to (μM DOXP)(mg enzyme)^-1 s ^-1 using a NADPH standard curve (data not shown). […] Data points from at least three independent replicates were analyzed as described above.

[19] = purified recombinant enzyme, mean ± SEM, read-out: S. schleiferi DXR enzyme IC50

CC(=O)N(O)C/C=C/P(=O)(O)O [Compound 1]
IC50 [1]: 3.31 ± 1.02 µM | IC50 [2]: 55.5 ± 2.41 µM | IC50 [3]: 54.5 ± 1.14 µM | IC50 [4]: > 100 µM

CC(=O)N(O)C/C=C/P(=O)(OCOC(=O)C(C)(C)C)OCOC(=O)C(C)(C)C [Compound 2]
inhibition of purified recombinant S. schleiferi DXR in vitro [1]: poorly inhibit | IC50 [1, 19]: > 100 µM | inhibition of growth of E. coli [5]: does not inhibit growth | IC50 [5]: > 1000 µM | inhibition of growth of Klebsiella pneumoniae [6]: does not inhibit growth | IC50 [6]: > 100 µM | IC50 [7]: > 100 µM | IC50 [8]: > 100 µM | IC50 [9]: > 100 µM | IC50 [10]: > 100 µM | IC50 [11]: > 100 µM | IC50 [2]: 0.1 ± 0.01 µM | IC50 [3]: 0.26 ± 0.03 µM | IC50 [4]: > 100 µM | sensitivity of FSM^R glpT mutant S. schleiferi strains (MIC fold change vs WT) [12]: remain sensitive

O=CN(O)C/C=C/P(=O)(O)O [Compound 3]
IC50 [1]: 0.41 ± 0.11 µM | IC50 [11]: > 50 µM | IC50 [2]: 4.17 ± 0.47 µM | IC50 [3]: 4.31 ± 0.51 µM | IC50 [4]: > 100 µM | sensitivity of FSM^R glpT mutant S. schleiferi strains (MIC fold change vs WT) [12]: cross-resistant

CC(C)(C)C(=O)OCOP(=O)(/C=C/CN(O)C=O)OCOC(=O)C(C)(C)C [Compound 4]
inhibition of purified recombinant S. schleiferi DXR in vitro [1]: poorly inhibit | IC50 [1, 19]: 12.6 ± 1.98 µM | IC50 [11]: > 50 µM | IC50 [2]: 0.03 µM | IC50 [3]: 0.21 ± 0.04 µM | IC50 [4]: > 90 µM | sensitivity of FSM^R glpT mutant S. schleiferi strains (MIC fold change vs WT) [12]: remain sensitive

CC(=O)N(O)CCCP(=O)(O)O [FR-900098]
IC50 [1]: 1 ± 0.18 µM | mechanism-of-action on viable cells [13]: bacteriostatic | mechanism-of-action on viable cells [14]: bacteriostatic | IC50 [2]: 41.1 ± 6.65 µM | IC50 [3]: 34.1 ± 6.54 µM | inhibition of S. aureus growth [4]: neither FSM nor FR-900098 inhibit S. aureus growth | IC50 [4]: > 100 µM

O=CN(O)CCCP(=O)(O)O [FSM, fosmidomycin]
Ki ([1]; competitive with respect to the DOXP substrate): 0.29 ± 0.022 µM | IC50 [1, 19]: 0.67 ± 0.06 µM | mode of DXR inhibition ([1]; with respect to the DOXP substrate): competitive | IC50 [5]: 0.29 ± 0.08 µM | IC50 [6]: 0.81 ± 0.56 µM | IC50 [7]: 0.23 ± 0.03 µM | IC50 [8]: 1.16 ± 0.69 µM | IC50 [9]: 0.39 ± 0.02 µM | IC50 [10]: > 100 µM | mechanism-of-action on viable cells [13]: bacteriostatic | mechanism-of-action on viable cells [14]: bacteriostatic | increase of intracellular DOXP level [15]: 23.8 fold | reduction of intracellular CDP-ME level [15]: 5.5 fold | reduction of intracellular MEcPP level [15]: 4.5 fold | increase of intracellular DOXP level [16]: 34.8 fold | reduction of intracellular CDP-ME level [16]: 2.6 fold | reduction of intracellular MEcPP level [16]: 2.4 fold | IC50 [2]: 0.78 ± 0.13 µM | IC50 [3]: 0.31 ± 0.04 µM | inhibition of S. aureus growth [4]: neither FSM nor FR-900098 inhibit S. aureus growth | IC50 [4]: > 100 µM | MIC ([12]; read-out: FSM MIC, Parental S. schleiferi): 19.8 µM (≈ 3.63 µg/mL) | MIC ([12]; read-out: FSM MIC, strain SSCH1903, GlpT G99X): 719 µM (≈ 132 µg/mL) | MIC ([12]; read-out: FSM MIC, strain SSCH3408, GlpT A267E): 500 µM (≈ 91.6 µg/mL) | MIC ([12]; read-out: FSM MIC, strain SSCH3612, GlpT G99V): 688 µM (≈ 126 µg/mL) | MIC ([12]; read-out: FSM MIC, strain SSCH3624 (second line), GlpT A309S): 562 µM (≈ 103 µg/mL) | MIC ([12]; read-out: FSM MIC, strain SSCH3624, GlpT G99V): 688 µM (≈ 126 µg/mL) | MIC ([12]; read-out: FSM MIC, strain SSCH3717, no GlpT change): > 1500 µM | MIC ([12]; read-out: FSM MIC, strain SSCH4455, GlpT G298X): > 1500 µM | MIC ([12]; read-out: FSM MIC, strain SSCH4494, GlpT G99X): 750 µM (≈ 137 µg/mL) | MIC ([12]; read-out: FSM MIC, strain SSCH7376, GlpT W148C): 438 µM (≈ 80.1 µg/mL) | MIC ([12]; read-out: FSM MIC, strain SSCH8400, GlpT W161L): 469 µM (≈ 85.8 µg/mL) | MIC ([12]; read-out: FSM MIC, strain SSCH8586, GlpT G99E): > 1500 µM | MIC ([12]; read-out: FSM MIC, strain SSCH8774, GlpT Q379P): > 1500 µM | MIC ([17]; read-out: FSM MIC, Parental S. pseudintermedius): 25.9 µM (≈ 4.74 µg/mL) | MIC ([17]; read-out: FSM MIC, strain SPSE0643, GlpT W301X): 1120 µM (≈ 206 µg/mL) | MIC ([17]; read-out: FSM MIC, strain SPSE1933, GlpT G99E): 875 µM (≈ 160 µg/mL) | MIC ([17]; read-out: FSM MIC, strain SPSE2052, GlpT D88Y): 1120 µM (≈ 206 µg/mL) | MIC ([17]; read-out: FSM MIC, strain SPSE2227, GlpT G135D): 1120 µM (≈ 206 µg/mL) | MIC ([17]; read-out: FSM MIC, strain SPSE2648, GlpT G99E): 1000 µM (≈ 183 µg/mL) | MIC ([17]; read-out: FSM MIC, strain SPSE5869, GlpT G135V): 938 µM (≈ 172 µg/mL) | MIC ([17]; read-out: FSM MIC, strain SPSE6794, GlpT G99E): 1250 µM (≈ 229 µg/mL) | MIC ([17]; read-out: FSM MIC, strain SPSE6909, GlpT G404D): 688 µM (≈ 126 µg/mL) | MIC ([17]; read-out: FSM MIC, strain SPSE7104, GlpT G99E): 1250 µM (≈ 229 µg/mL) | MIC ([17]; read-out: FSM MIC, strain SPSE7724, GlpT G400C): 1120 µM (≈ 206 µg/mL) | MIC ([17]; read-out: FSM MIC, strain SPSE8628, no GlpT change): 1060 µM (≈ 195 µg/mL) | MIC ([17]; read-out: FSM MIC, strain SPSE9765, no GlpT change): 1250 µM (≈ 229 µg/mL)

B1: S. schleiferi DXR enzyme (Staphylococcus schleiferi) (protein)
chain: MKNIAILGASGSIGQQAIDVIARHPESFNLISFTVGKNIEFAIEVIEKFKPEIVSVQDEADVERLKPYHSNIVSGRQGLIDVSTYEKNDLVLNALLGSVGLEPTMKAIEAGKNIALANKETLVVAGKLVMTHAKRYGVDILPVDSEHAAIFQCLNGEDMHKIKNVTITASGGSFRELTREQLEHVTVGDALNHPNWSMGNKITIDSATMMNKGFEVIEAKWLFDLKIDQIKTILHKESIIHSLVEFVDTSVMAQLGTPDMRMPIQYAFTYPERIEHRAPSLDLVQVAQLHFQEMDLDRYRCLKFAYDALRIGGSMPVVLNAVNEVAVAKFLNHEITFLEIEHMIEREMSAHEVIPDPSLEEILEIDHYYKTKSYEV
Km [18]: 520 ± 80 µM
